Among the data in US7332492B2, “Amino substituted dibenzothiophene derivatives for the treatment of disorders mediated by NP Y5 receptor” (AstraZeneca AB, priority 2000, dated 2008) are IC50 values, retold here.

Each structure is given as a SMILES string.

The test concerns the target T1, human neuropeptide Y5 receptor (Homo sapiens, UniProt Q15761).
T1 construct: starting at base 56 through to base 1393, to express the protein 10 amino acid residues shorter at the amino terminal end; made in house; host or cells: High 5 insect cells (baculovirus, pFASTBAC1 / Bac-to-Bac); membrane preparation
T1 sequence (Q15761 1-445): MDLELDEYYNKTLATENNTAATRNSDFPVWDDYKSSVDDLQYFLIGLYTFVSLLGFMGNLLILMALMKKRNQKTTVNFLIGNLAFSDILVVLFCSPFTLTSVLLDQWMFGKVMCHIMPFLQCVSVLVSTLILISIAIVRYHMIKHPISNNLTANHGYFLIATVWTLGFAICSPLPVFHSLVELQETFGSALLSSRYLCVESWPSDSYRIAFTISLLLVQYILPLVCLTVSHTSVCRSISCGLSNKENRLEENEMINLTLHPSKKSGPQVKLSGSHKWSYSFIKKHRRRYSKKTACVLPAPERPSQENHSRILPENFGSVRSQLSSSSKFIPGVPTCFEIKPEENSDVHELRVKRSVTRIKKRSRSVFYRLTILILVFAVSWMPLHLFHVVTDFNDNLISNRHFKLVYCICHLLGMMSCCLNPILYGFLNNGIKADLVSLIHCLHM
Description: neuropeptide Y5 receptor binding assay (125I PYY displacement). The conditions noted are these: 125I PYY binding, membranes of High 5 insect cells expressing human NPY5 receptor. As to the method: The activity of compounds of the invention was measured in a neuropeptide Y5 receptor binding assay as follows. Compounds were also tested in binding assays for the neuropeptide Y1 and neuropeptide Y2 receptors. Activity against these 2 receptors is contraindicated for a neuropeptide Y5 antagonist.
a) Expression of Human Neuropeptide Y5 Receptor in High 5™ Insect Cells.
High 5™ insect cells were obtained from Invitrogen (catalogue No B855-02) and stored in liquid nitrogen. Cells were revived from liquid nitrogen storage and grown at 28° C. in 100 ml ExCell 405 (JRH Biosciences) serum free medium in a 250 ml conical flask (Corning) agitated at 140 rpm in an Innova 4330 orbital shaker (New Brunswick Scientific). Cultures were routinely sub-cultured every 3-4 days.
High 5™ insect cells were transfected with the human NPY5 receptor as follows. PCR primers were designed against the huNPY5 receptor sequence, Genbank Accession Number U56079 [Gerald et. al. (1996) Nature 382, 168-171], but starting at base 56 through to base 1393, to express the protein 10 amino acid residues shorter at the amino terminal end [see Borowsky et. al. (1998) Regulatory Peptides 75-76, 45-53]. These primers were used to amplify the huNPY5 receptor from human placenta genomic DNA by PCR. […]

Regarding `CC(CN1CCOCC1)C(=O)Nc1ccc2sc3ccccc3c2c1` (stereo not shown) [Example 16], the IC50 – broadly, the concentration that inhibits the measured activity by half – was 94 nM.
